Structures can show the parent of a compound that is named as a salt.
What was measured:
[1] = system: Polyclonal rabbit IgG (rIgG); assay: Native fluorescence assay of rabbit IgG denaturation (ex 280 nm, emission ratio 376/360 nm); assay type: biochemical; details: for denaturing power (in words): 5 mM concentration and lower temperatures
Description: To determine the effectiveness of the guanidine and amidine reagents from the table of FIG. 8, a native fluorescence assay was established using rabbit IgG. Upon excitation at 280 nm, emission was measured ratiometrically at two wavelengths 376 and 360 nm.
Fluorescence spectra were acquired at an excitation wavelength of 280 nm and emission intensity is reported as a ratio of 376 nm intensity divided by 360 nm intensity. An increase in 1376/1360 denotes a change in the microenvironment of tryptophan residues—specifically, their change from a hydrophobically surrounded native state to a solvent exposed denatured state.
The IgG sample was subjected to concentrations of 0.5, 5, and 50 mM and temperatures of either ambient, 50° C., 70° C., or 90° C. […] Fluorescence was performed with an excitation wavelength of 280 nm.
Polyclonal rabbit IgG (rIgG) was used as a test protein to evaluate the denaturation power of various reagents. The rIgG protein was dissolved and diluted to a concentration of 0.25 mg/mL with water, while also being subjected to the chemical compound of interest and an incubation at either room temperature, 50° C., 70° C., or 90° C. To generate a positive control for complete denaturation, the rIgG sample was subjected to room temperature incubations with guanidine hydrochloride at 0 and up to 8M concentrations. Native fluorescence of the resulting sample was thereafter measured using an excitation wavelength of 280 nm. Emission intensities at 376 and 360 nm were subsequently detected and reported as a ratio as a sensitive measure of rIgG denaturation and a change in the local environment of tryptophan residues.
Fluorescence intensity ratios obtained after incubation with reagent #1, reagent #2, and reagent #3 and either ambient, 50° C., 70° C., or 90° C. temperatures are provided in FIG. 3. Likewise, fluorescence intensity ratios obtained after incubation with reagent #4, reagent #5, and reagent #6 and either ambient, 50° C., 70° C., or 90° C. temperatures are provided in FIG. 4. In all experiments, the substituted guanidine and amidines were titrated to a neutral pH and their protonated ionization states prior to being incubated with protein sample.

Orencia® (abatacept) = target: T1, Orencia® (abatacept) (Homo sapiens, UniProt P16410, C103S); assay: N-glycan release and RapiFluor-MS labeling after denaturation, LC-FLR-MS profile; details: 5 mM tetramethylguanidine denatured Orencia®, no desalting
T1 construct: modified human IgG1 Fc (hinge-CH2-CH3) fusion partner; purchased Bristol-Myers Squibb
T1 sequence (P16410 with tags, fused parts or gaps limits assumed, stated change not applied): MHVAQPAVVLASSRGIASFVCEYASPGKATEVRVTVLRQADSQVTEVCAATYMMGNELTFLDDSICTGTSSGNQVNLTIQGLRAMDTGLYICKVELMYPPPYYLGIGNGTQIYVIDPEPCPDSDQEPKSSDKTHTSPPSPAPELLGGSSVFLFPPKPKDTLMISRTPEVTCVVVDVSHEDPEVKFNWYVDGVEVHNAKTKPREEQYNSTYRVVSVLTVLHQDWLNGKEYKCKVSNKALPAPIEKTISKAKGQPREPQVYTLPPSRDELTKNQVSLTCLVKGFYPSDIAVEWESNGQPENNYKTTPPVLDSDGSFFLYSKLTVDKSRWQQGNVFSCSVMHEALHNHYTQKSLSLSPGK
Description: In the example of FIG. 6, abatacept was denatured with 5 mM tetramethylguanidine at a 90° C. and incubated at 50° C. with PNGase F. The resulting N-glycosylamines were there derivatized with RapiFluor-MS™ and cleaned up with solid phase extraction using a GlycoWorks RapiFluor-MS™ N-glycan kit (according to manufacturer recommendations; Waters Technologies Corporation, Milford, Mass.). RapiFluor-MS™ labeled N-glycans from this tetramethylguanidinium denatured sample were thereafter profiled by […].
Thirty (30) μL of deglycosylated protein was labeled with 12 μL of RapiFluor-MS™ solution (68.7 mg/mL in DMF) for 5 minutes at room temperature, followed by dilution with 358 μL of acetonitrile for SPE clean-up. The total of 400 μL mixed solution was transferred to a pre-conditioned HILIC μElution SPE plate staged for operation on a positive pressure manifold with 3 psi pressurization. Each sample was loaded onto the plate and then twice washed with 600 μL of 1:9:90 (v/v/v) formic acid/water/acetonitrile. Finally, released glycans were eluted from individual wells with three, 30 μL of 200 mM ammonium acetate in 5% acetonitrile. Eluate was collected and transferred in LC vials for analysis. LC-FLR-MS settings and parameters used in these experiments are listed below in Table 2.

[2] = target: T2, Orencia® (abatacept), a glycosylated fusion protein (Homo sapiens, UniProt P16410, C103S); assay: Denaturation then PNGase F deglycosylation of abatacept, intact protein RPLC-MS; assay type: biochemical; details: 5 mM reagent, short 90° C. incubation, no desalting, PNGase F at 50° C.
T2 construct: modified human IgG1 Fc (hinge-CH2-CH3) fusion partner; purchased Bristol-Myers Squibb
T2 sequence (P16410 with tags, fused parts or gaps limits assumed, stated change not applied): as above
Description: An Orencia® stock solution (20 mg/mL) was diluted 10 times with water to a concentration of 2 mg/mL, followed by the addition of 10 μL diluted sample into three 1 mL polypropylene tubes. Four (4) μL of 50 mM guanidino reagents, tetramethylguanidine (reagent #1), t-butyl tetramethylguanidine (reagent #2), and trazabicyclodecene (reagent #3), were added into each tube, separately. Finally, 8 μL of 50 mM HEPES, pH 7.9 buffer was transferred into each tube along with 16.4 μL of water.
The contents of each well were subsequently mixed by aspiration. Each sample was then incubated at 90° C., 3 minutes for denaturation and then removed from the heating block to cool at room temperature for 3 minutes. Each denatured glycoprotein sample was treated with 1.6 μL of GlycoWorks Rapid PNGase F at 50° C. for 5 minutes. Aliquots containing 10 μL of each deglycosylated sample were submitted for intact protein analysis, while the remaining 30 μL samples were subjected to RapiFluor-MS™ labeling and released glycan analysis (see details in Example 3).
Additionally, two controls were applied. For a positive control (FIG. 5D), 5 μL of Orencia® stock solution was mixed with 45 μL of 8M guanidine hydrochloride at room temperature, followed by desalting with a Thermo Zeba spin column. The resulting, 10 μL desalted sample was mixed with 8 μL of 50 mM HEPES, pH 7.9, 20.4 μL of water and 1.6 μL of GlycoWorks Rapid PNGase F before being incubated at 50° C. for 5 min to perform deglycosylation. Ten (10) μL of this deglycosylated protein, as well as 10 μL of 2 mg/mL Orencia® solution without denaturation, were tested as positive and negative controls of intact protein analysis. LCMS settings and parameters used for intact protein analysis are listed below in Table 1.

| SMILES | fluorescence intensity ratio of rIgG ([1]; 1% (w/v) RapiGest SF [~24 mM], suggests only partial denaturation) | interference in LC-FLR-MS data of RapiFluor-MS labeled N-glycans (Orencia® (abatacept)) | denaturing power (in words) [1] | extent of PNGase F deglycosylation of abatacept after denaturation [2] | fluorescence intensity ratio of rIgG ([1]; 8M guanidine, room temperature, native state rIgG approximately 1.3) |
| --- | --- | --- | --- | --- | --- |
| CCCCCCCCCCCC1(C)OCC(COCCCS(=O)(=O)[O-])O1.[Na+] (stereo not drawn) [RapiGest SF] | approximately 1.4 |  |  |  |  |
| CN(C)C(=N)N(C)C [Reagent 1, 1,1,3,3-tetramethylguanidine] |  | no significant interferences | significantly reduced | as extensively deglycosylated as the guanidinium hydrochloride denatured controls |  |
| CN(C)C(=NC(C)(C)C)N(C)C [Reagent 2, 2-tert-butyl-1,1,3,3-tetramethylguanidine] |  |  | significantly reduced | as extensively deglycosylated as the guanidinium hydrochloride denatured controls |  |
| C1CN=C2NCCCN2C1 [Reagent 3, 1,5,7-triazabicyclo[4.4.0]dec-5-ene] |  |  | significantly reduced | as extensively deglycosylated as the guanidinium hydrochloride denatured controls |  |
| N=C(N)N [guanidine, guanidine hydrochloride, reference compound] |  |  |  |  | approximately 1.6 |

From US20210388022A1, “SUBSTITUTED GUANIDINO AND AMIDINO REAGENTS AND THE USE THEREOF FOR PROTEIN DENATURATION” (Waters Technologies Corporation, priority 2020, published 2021)
